The assay deals with HCV replicon. Nature of the assay: HCV replicon assay (luciferase). Type of assay: cell-based, Hepatitis C virus (HCV). The note with it: 5-2 Luc replicon cells, 24 hours with compound, luciferase emission; first symbol of Replicon/Western. An excerpt: In one embodiment, the inhibitory activity of the compounds can be confirmed in a replicon assay that assesses the ability of a test compound to block or inhibit HCV replication in replicon cells. One example of a suitable replicon assay is the liver cell-line Huh 7-based replicon assay described in Lohmann et al., 1999, Science 285:110-113. A specific example of this replicon assay which utilizes luciferase translation is provided in the Examples Section. In one embodiment of this assay, the amount of test compound that yields a 50% reduction in translation as compared to a control cell (IC50) may be determined.
The inhibitory activity of certain exemplary compounds of the invention was confirmed using an HCV replicon assay. The HCV replicon can include such features as the HCV 5′ untranslated region including the HCV IRES, the HCV 3′ untranslated region, selected HCV genes encoding HCV polypeptides, selectable markers, and a reporter gene such as luciferase, GFP, etc. In the assay, actively dividing 5-2 Luc replicon-comprising cells (obtained from Rolf Bartenschlager; see Lohmann et al., 1999, Science 285:110-113) were seeded at a density of between about 5,000 and 7,500 cells/well onto 96 well plates (about 90 μl of cells per well) and incubated at 37° C. and 5% CO2 for 24 hours. Then, the test compound (in a volume of about 10 μl) was added to the wells at various concentrations and the cells were incubated for an additional 24 hours before luciferase assay. The media was aspirated from each well and Bright-Glo (Promega, Madison, Wis.) luciferase assay reagents were added to each well according to the manufacturer's instructions. Briefly, the Bright-Glo reagent was diluted 1:1 with PBS and 100 μl of diluted reagent was added to each well. After 5 min of incubation at room temperature, luciferin emission was quantified with a luminometer. In this assay, the amount of test compound that yielded a 50% reduction in luciferase emission (IC50) was determined.
With “2,2-Dichloro-N-[3-[3-[2,6-dimethyl-4-(N-morpholino-2-ethyleneoxy)phenyl]-5-isoxazolyl]phenyl] Acetamide [Compound 23]”, the IC50 (in general, the concentration needed to halve the response being measured) was at most 10 µM.

With `CN(C)C1CCN(c2cccc(Cl)c2-c2cc(-c3cccc(NC(=O)C(Cl)Cl)c3)on2)C1` (racemic) [Compound 132, (±)-2,2-Dichloro-N-[3-[3-[2-chloro-6-(3-dimethylamino-N-pyrrolidino)phenyl]-5-isoxazolyl]-phenyl] Acetamide], the IC50 was at most 10 µM.

Turning to `O=C(Nc1cccc(-c2cc(-c3c(Cl)cccc3Cl)no2)c1)C(Br)Br` [Compound 29, 2,2-Dibromo-N-[3-[3-(2,6-dichlorophenyl)-5-isoxazolyl]phenyl] Acetamide], the IC50 is at most 10 µM.

Consider `Cc1cccc(Cl)c1-c1cc(-c2cccc(NC(=O)C(Cl)Cl)c2)on1` [Compound 31, 2,2-Dichloro-N-[3-[3-(2-chloro-6-methylphenyl)-5-isoxazolyl]phenyl] Acetamide], for which the IC50 is at most 10 µM.

For the molecule `O=C(Nc1cccc(-c2cc(-c3ccccc3C(F)(F)F)no2)c1)C(Cl)Cl` [Compound 33, 2,2-Dichloro-N-[3-[3-(2-trifluoromethylphenyl)-5-isoxazolyl]phenyl] Acetamide], the half-maximal inhibitory concentration (IC50) was at most 10 µM.

Take `O=C(Nc1cccc(-c2cc(-c3c(O)cccc3C(F)(F)F)no2)c1)C(Cl)Cl` [Compound 35, 2,2-Dichloro-N-[3-[3-(2-hydroxy-6-trifluoromethylphenyl)-5-isoxazolyl]phenyl] Acetamide]: the IC50 is at most 10 µM.

Regarding `CC(C)c1cccc(Cl)c1-c1cc(-c2cccc(NC(=O)C(Cl)Cl)c2)on1` [Compound 39, 2,2-Dichloro-N-[3-[3-(2-chloro-6-isopropylphenyl)-5-isoxazolyl]phenyl] Acetamide], the IC50 is at most 10 µM.

With `O=C(Nc1cccc(-c2cc(-c3c(F)cccc3C(F)(F)F)no2)c1)C(Cl)Cl` [Compound 41, 2,2-Dichloro-N-[3-[3-(2-fluoro-6-trifluoromethylphenyl)-5-isoxazolyl]phenyl] Acetamide], the IC50 was at most 10 µM.

On to `COc1cccc(F)c1-c1cc(-c2cccc(NC(=O)C(Cl)Cl)c2)on1` [Compound 43, 2,2-Dichloro-N-[3-[3-(2-fluoro-6-methoxyphenyl)-5-isoxazolyl]phenyl] Acetamide], for which the IC50 was at most 10 µM.

Regarding `O=C(Nc1cccc(-c2cc(-c3ccccc3OC(F)F)no2)c1)C(Cl)Cl` [Compound 45, 2,2-Dichloro-N-[3-[3-(2-difluoromethoxyphenyl)-5-isoxazolyl]phenyl] Acetamide], the IC50 was at most 10 µM.

For the molecule `Cc1cccc(C)c1-c1cc(-c2cccc(NC(=O)C(Cl)Cl)c2)on1` [Compound 47, 2,2-Dichloro-N-[3-[3-(2,6-dimethylphenyl)-5-isoxazolyl]phenyl] Acetamide], the IC50 is at most 10 µM.

As for `O=C(Nc1cccc(-c2cc(-c3c(F)cccc3I)no2)c1)C(Cl)Cl` [Compound 49, 2,2-Dichloro-N-[3-[3-(2-fluoro-6-iodophenyl)-5-isoxazolyl]phenyl] Acetamide], the IC50 was at most 10 µM.

For the molecule `Cc1ccc(Cl)c(-c2cc(-c3cccc(NC(=O)C(Cl)Cl)c3)on2)c1F` [Compound 51, 2,2-Dichloro-N-[3-[3-(6-chloro-2-fluoro-3-methylphenyl)-5-isoxazolyl]phenyl] Acetamide], the IC50 was at most 10 µM.

Regarding `O=C(Nc1cccc(-c2cc(-c3c(F)ccc(F)c3Cl)no2)c1)C(Cl)Cl` [Compound 53, 2,2-Dichloro-N-[3-[3-(2-chloro-3,6-difluorophenyl)-5-isoxazolyl]phenyl] Acetamide], the IC50 was at most 10 µM.

Consider `CN(C(=O)C(Cl)Cl)c1cccc(-c2cc(-c3c(Cl)cccc3Cl)no2)c1` [Compound 57, 2,2-Dicbloro-N-[3-[3-(2,6-dichlorophenyl)-5-isoxazolyl]phenyl]-N-methyl Acetamide], for which the IC50 was at most 10 µM.

For the molecule `CCOc1ccccc1-c1cc(-c2cccc(NC(=O)C(Cl)Cl)c2)on1` [Compound 61, 2,2-Dichloro-N-[3-[3-(2-ethoxyphenyl)-5-isoxazolyl]phenyl] Acetamide], the IC50 is at most 10 µM.

For `CC(C)c1ccccc1-c1cc(-c2cccc(NC(=O)C(Cl)Cl)c2)on1` [Compound 63, 2,2-Dichloro-N-[3-[3-(2-isopropylphenyl)-5-isoxazolyl]phenyl] Acetamide], the IC50 was at most 10 µM.

As to `CN(C)c1cc(Cl)c(-c2cc(-c3cccc(NC(=O)C(Cl)Cl)c3)on2)c(Cl)c1` [Compound 65, 2,2-Dichloro-N-[3-[3-(2,6-dichloro-4-dimethylaminophenyl)-5-isoxazolyl]phenyl] Acetamide], the IC50 was at most 10 µM.

Regarding `O=C(CCl)Nc1cccc(-c2cc(-c3c(Cl)cccc3Cl)no2)c1` [Compound 67, 2-Chloro-N-[3-[3-(2,6-dichlorophenyl)-5-isoxazolyl]phenyl] Acetamide], the IC50 was at most 10 µM.

For the molecule `O=C(Nc1cccc(-c2cc(-c3c(Cl)cc(OCCCN4CCOCC4)cc3Cl)no2)c1)C(Cl)Cl` [Compound 73, 2,2-Dichloro-N-[3-[3-[2,6-dichloro-4-(N-morpholinopropyleneoxy)phenyl]-5-isoxazolyl]-phenyl] Acetamide], the IC50 was at most 10 µM.

On to `COc1cccc(C(F)(F)F)c1-c1cc(-c2cccc(NC(=O)C(Cl)Cl)c2)on1` [Compound 77, 2,2-Dichloro-N-[3-[3-(2-methoxy-6-trifluoromethylphenyl)-5-isoxazolyl]phenyl] Acetamide], for which the IC50 is at most 10 µM.

Turning to `O=C(Nc1cccc(-c2cc(-c3c(Cl)cccc3C3CC3)no2)c1)C(Cl)Cl` [Compound 79, 2,2-Dichloro-N-[3-[3-(2-chloro-6-cyclopropylphenyl)-5-isoxazolyl]phenyl] Acetamide], the IC50 was at most 10 µM.

Turning to `COc1cccc(Cl)c1-c1cc(-c2cccc(NC(=O)C(Cl)Cl)c2)on1` [Compound 81, 2,2-Dichloro-N-[3-[3-(2-chloro-6-methoxyphenyl)-5-isoxazolyl]phenyl] Acetamide], the IC50 is at most 10 µM.

Regarding `O=C(Nc1cccc(-c2cc(-c3c(O)cccc3Cl)no2)c1)C(Cl)Cl` [Compound 83, 2,2-Dichloro-N-[3-[3-(2-chloro-6-hydroxyphenyl)-5-isoxazolyl]phenyl] Acetamide], the IC50 was at most 10 µM.

Turning to `Cc1cccc(C(F)(F)F)c1-c1cc(-c2cccc(NC(=O)C(Cl)Cl)c2)on1` [Compound 85, 2,2-Dichloro-N-[3-[3-(2-methyl-6-trifluoromethylphenyl)-5-isoxazolyl]phenyl] Acetamide], the IC50 was at most 10 µM.

Take `O=C(Nc1cccc(-c2noc(-c3c(Cl)cccc3Cl)n2)c1)C(Cl)Cl` [Compound 87, 2,2-Dichloro-N-[3-[5-(2,6-dichlorophenyl)-3-(1,2,4-oxadiazolyl)]phenyl] Acetamide]: the IC50 was at most 10 µM.

With `O=C(Nc1cccc(-c2cc(-c3c(C4CC4)cccc3C(F)(F)F)no2)c1)C(Cl)Cl` [Compound 89, 2,2-Dichloro-N-[3-[3-(2-cyclopropyl-6-trifluoromethylphenyl)-5-isoxazolyl]phenyl] Acetamide], the IC50 is at most 10 µM.

Consider `COc1cccc(C)c1-c1cc(-c2cccc(NC(=O)C(Cl)Cl)c2)on1` [Compound 91, 2,2-Dichloro-N-[3-[3-(2-methoxy-6-methylphenyl)-5-isoxazolyl]phenyl] Acetamide], for which the IC50 is at most 10 µM.

Take `CC(C)c1cccc(C(F)(F)F)c1-c1cc(-c2cccc(NC(=O)C(Cl)Cl)c2)on1` [Compound 93, 2,2-Dichloro-N-[3-[3-(2-isopropyl-6-trifluoromethylphenyl)-5-isoxazolyl]phenyl] Acetamide]: the IC50 was at most 10 µM.

As for `O=C(Nc1cccc(-c2cc(-c3c(Cl)cccc3OCCN3CCOCC3)no2)c1)C(Cl)Cl` [Compound 95, 2,2-Dichloro-N-[3-[3-[2-chloro-6-(N-morpholino-2-ethyleneoxy)phenyl]-5-isoxazolyl]-phenyl] Acetamide], the IC50 is at most 10 µM.

As to `O=C(Nc1cccc(-c2cc(-c3c(Cl)cccc3C3CCCC3)no2)c1)C(Cl)Cl` [Compound 97, 2,2-Dichloro-N-[3-[3-(2-chloro-6-cyclopentylphenyl)-5-isoxazolyl]phenyl] Acetamide], the IC50 was at most 10 µM.

With `CN1CCN(c2cccc(Cl)c2-c2cc(-c3cccc(NC(=O)C(Cl)Cl)c3)on2)CC1` [Compound 99, 2,2-Dichloro-N-[3-[3-[2-chloro-6-(4-methylpiperazino)phenyl]-5-isoxazolyl]phenyl] Acetamide], the IC50 was at most 10 µM.

Regarding `CCCCc1cccc(Cl)c1-c1cc(-c2cccc(NC(=O)C(Cl)Cl)c2)on1` [Compound 103, 2,2-Dichloro-N-[3-[3-(2-chloro-6-n-butylphenyl)-5-isoxazolyl]phenyl] Acetamide], the IC50 is at most 10 µM.

Consider `O=C(Nc1cccc(-c2cc(-c3c(C4CCCC4)cccc3C(F)(F)F)no2)c1)C(Cl)Cl` [Compound 105, 2,2-Dichloro-N-[3-[3-(2-cyclopentyl-6-trifluoromethylphenyl)-5-isoxazolyl]phenyl] Acetamide], for which the IC50 was at most 10 µM.

The values above are taken from patent publication US6759538B2, “Substituted diphenyl heterocycles useful for treating HCV infection” (priority 2001, dated 2004).
